Legend:
[1] = tested on: MCF-7 (estrogen receptor positive breast cancer cells); experiment: Anti-proliferation activity against MCF-7 cells (MTS/PMS); assay type: cell-based; conditions: up to 100 μM
Procedure, shortened: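 Viability after 72 h compound treatment (1% DMSO final, 37° C., 5% CO2) measured by MTS/PMS; plating density 2000 cells/well with overnight attachment.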

[2] = tested on: Hsp70 in primary cortical neurons; experiment: Hsp70 up-regulation in neuronal cells (immunoblot); assay type: cell-based, rat
Method: Inhibition of Hsp90 induces overexpression of both Hsp90 and Hsp70 through dissociation of Hsp90-HSF-1 complexes and subsequent translocation of HSF-1 to the nucleus. […] Thus, in this example, an immunoblot analysis of neuronal cells was performed for Hsp70.
Primary cortical neurons were prepared as described herein. Cells were incubated (37° C. in 5% CO2) with the indicated concentrations of GA or KU-1/A4 for 24 or 48 hours. Cells were washed three times with phosphate buffered saline (PBS), followed by addition of a cell lysis buffer (50 mM Tris-HCL, 150 mM NaCl, 5 mM EDTA, 5 mM EGTA, 1% NP40, 10% Glycerol, 1 mM Na3VO4, 10 mM sodium molybdate, 40 mM NaF, and 10 ul/ml of Calbiochem protease inhibitor cocktail III). Cells were collected by scraping the dishes and aspirating all contents. […] The membranes were probed with the indicated primary HSP70 antibody (1:500, Upstate Biotechnology) and immunoreactive proteins detected using the Lumiglo Western Blot Protein Detector Kit (KPL). The immunoblots were scanned using a Kodak Image Station 2000R to determine the pixel density of the bands and imported into Photoshop and analyzed as described in Zaidi et al., Oxidative inactivation of purified plasma membrane Ca2+-ATPase by hydrogen peroxide and protection by calmodulin, Biochem. 42 12001-12010 (2003). All blots were re-probed with antibodies to β-actin I-19R (Santa Cruz) as a loading control and the data are presented as the ratio of Hsp70 to actin in each lane. Cells from at least three separate cultures for each treatment condition were examined, and the significance of differences in the immunoreactivities of the bands observed under the various treatment conditions was assessed by Student's t-test for unpaired samples.

[3] = tested on: Hsp90 client protein Her-2 in Skbr3 breast cancer cells; experiment: Degradation of Her-2, Western blot in Skbr3 cells; assay type: cell-based
Method: After incubation, the cells were harvested, lysed, and equal amounts of the protein lysates loaded into SDS wells. After electrophoresis, the gel was probed with Her-2 and actin (control) antibodies.

[4] = tested on: Hsp90-dependent client protein phospho-AKT in SKBr3 breast cancer cells; experiment: Degradation of phospho-AKT, Western blot in SKBr3 cells; assay type: cell-based; conditions: 100 μM
Method: Total protein concentration of each lysate was determined and equal amounts of protein were run in each lane of the gels. For the graphs shown in FIG. 1, the O.D.'s (optical density) of the Western bands for phospho-AKT were measured, as were the O.D.'s for actin probed as controls on the same blots. To obtain the graphed values, all specific O.D.'s (for Hsp90 clients) were normalized to the respective actin O.D.
Inhibition of Hsp90 results in the degradation of Hsp90-dependent clients via ubiquitination of the unfolded client followed by proteasome-mediated hydrolysis. […] Geldanamycin (GDA, 0.5 μM) was used as a positive control for Hsp90 inhibition.

For `CO[C@@H]1[C@@H](O)[C@@H](O)[C@H](Oc2ccc3cc(NC(C)=O)c(=O)oc3c2)OC1(C)C` [KU-1/A4, N-(7-((2R,3R,4S,5R)-3,4-dihydroxy-5-methoxy-6,6-dimethyl-tetrahydro-2H-pyran-2-yloxy)-2-oxo-2H-chromen-3-yl)acetamide], the “anti-proliferative effects MCF-7” value [1] was “no anti-proliferative effects”, the “Hsp70 levels (ratio of Hsp70 to actin)” value ([2]; 0.2 μM, 48 hours) was “significantly increased Hsp70 levels” and the “lowest concentration leading to increases in Hsp70 levels” value ([2]; 48 hours, compared to DMSO controls) was 1 nM. For the same compound, the Hsp70 levels ([2]; higher concentrations (1 and 10 μM)) was “did not significantly increase Hsp70 levels”, the “IC50 (concentration producing 50% degradation of Her-2)” value ([3]; 24 hours, normalized against actin) was “low micromolar range” and the “concentrations between which a rapid decrease in Her-2 was observed” value ([3]; tested at 100 nM, 1 μM and 10 μM) was “between 100 nM and 1 μM”. The “degradation of phosphorylated AKT (Hsp90 inhibition)” value [4] was “the most potent novobiocin analogues identified”.

— patent US9120774B2 (University of Kansas, priority 2009, dated 2015)
